In experiment [1] the target is Interleukin-1 receptor-associated kinase 1 (Homo sapiens, UniProt P51617).
Experiment [2] addresses Ribosomal protein S6 kinase alpha-1 (Homo sapiens, UniProt Q15418).
Another experiment has as its target T1, ADP/ATP translocase 2 (Homo sapiens, UniProt P05141).
T1 sequence (P05141 whole entry): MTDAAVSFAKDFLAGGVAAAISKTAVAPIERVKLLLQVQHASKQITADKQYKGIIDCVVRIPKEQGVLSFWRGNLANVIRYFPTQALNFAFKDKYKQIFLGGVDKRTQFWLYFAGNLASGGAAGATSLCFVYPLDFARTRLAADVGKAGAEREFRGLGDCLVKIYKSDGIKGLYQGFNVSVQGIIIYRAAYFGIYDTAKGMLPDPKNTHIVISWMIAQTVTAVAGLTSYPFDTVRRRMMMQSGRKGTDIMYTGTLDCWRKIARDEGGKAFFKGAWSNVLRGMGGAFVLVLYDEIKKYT

For experiment [3], the target named is Serine/threonine-protein kinase/endoribonuclease IRE1 (Homo sapiens, UniProt O75460).
Serine/threonine-protein kinase/endoribonuclease IRE1, sequence (O75460 whole entry): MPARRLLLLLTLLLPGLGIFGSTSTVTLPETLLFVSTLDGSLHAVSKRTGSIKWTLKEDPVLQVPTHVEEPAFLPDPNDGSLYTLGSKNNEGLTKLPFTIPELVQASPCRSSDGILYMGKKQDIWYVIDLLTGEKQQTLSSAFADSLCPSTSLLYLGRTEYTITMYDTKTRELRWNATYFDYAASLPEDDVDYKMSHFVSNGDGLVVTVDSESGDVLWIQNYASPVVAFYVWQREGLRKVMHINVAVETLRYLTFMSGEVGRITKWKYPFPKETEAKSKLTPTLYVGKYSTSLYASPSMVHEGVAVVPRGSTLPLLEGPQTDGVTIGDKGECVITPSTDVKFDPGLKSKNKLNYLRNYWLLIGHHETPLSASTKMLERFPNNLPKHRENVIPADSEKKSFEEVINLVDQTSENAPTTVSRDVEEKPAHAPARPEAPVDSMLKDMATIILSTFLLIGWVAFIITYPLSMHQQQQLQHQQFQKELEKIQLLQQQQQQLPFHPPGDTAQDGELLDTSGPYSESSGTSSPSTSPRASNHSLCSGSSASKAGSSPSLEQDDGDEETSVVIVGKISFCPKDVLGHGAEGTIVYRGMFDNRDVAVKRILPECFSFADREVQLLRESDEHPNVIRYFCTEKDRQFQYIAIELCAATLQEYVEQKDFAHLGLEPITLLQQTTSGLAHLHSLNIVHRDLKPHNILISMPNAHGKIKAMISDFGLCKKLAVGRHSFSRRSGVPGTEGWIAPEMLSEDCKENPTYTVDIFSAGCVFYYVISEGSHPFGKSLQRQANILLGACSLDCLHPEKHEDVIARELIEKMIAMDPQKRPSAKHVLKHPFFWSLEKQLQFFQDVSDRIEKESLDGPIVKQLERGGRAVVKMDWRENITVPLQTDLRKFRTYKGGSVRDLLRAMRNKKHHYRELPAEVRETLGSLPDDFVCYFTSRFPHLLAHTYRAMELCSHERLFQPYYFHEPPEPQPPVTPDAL
Experiment [4] addresses Non-receptor tyrosine-protein kinase TYK2 (Homo sapiens, UniProt P29597).
Experiment [5] deals with T2, Phosphorylase b kinase gamma catalytic chain, liver/testis isoform (Homo sapiens, UniProt P15735).
T2 sequence (P15735 whole entry): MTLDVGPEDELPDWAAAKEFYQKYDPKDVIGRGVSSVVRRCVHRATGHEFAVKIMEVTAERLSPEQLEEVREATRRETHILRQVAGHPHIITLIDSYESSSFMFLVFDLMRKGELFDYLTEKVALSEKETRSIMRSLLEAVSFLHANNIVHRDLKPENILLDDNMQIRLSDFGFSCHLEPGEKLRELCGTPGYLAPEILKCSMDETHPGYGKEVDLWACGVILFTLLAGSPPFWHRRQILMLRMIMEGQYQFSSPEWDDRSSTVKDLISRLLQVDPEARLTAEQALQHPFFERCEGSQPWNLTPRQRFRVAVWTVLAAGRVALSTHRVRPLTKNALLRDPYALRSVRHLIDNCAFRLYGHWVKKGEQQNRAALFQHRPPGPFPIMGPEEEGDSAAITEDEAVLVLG

In experiment [6] the target is T3, Breakpoint cluster region protein (Homo sapiens, UniProt P11274).
T3 sequence (P11274 whole entry): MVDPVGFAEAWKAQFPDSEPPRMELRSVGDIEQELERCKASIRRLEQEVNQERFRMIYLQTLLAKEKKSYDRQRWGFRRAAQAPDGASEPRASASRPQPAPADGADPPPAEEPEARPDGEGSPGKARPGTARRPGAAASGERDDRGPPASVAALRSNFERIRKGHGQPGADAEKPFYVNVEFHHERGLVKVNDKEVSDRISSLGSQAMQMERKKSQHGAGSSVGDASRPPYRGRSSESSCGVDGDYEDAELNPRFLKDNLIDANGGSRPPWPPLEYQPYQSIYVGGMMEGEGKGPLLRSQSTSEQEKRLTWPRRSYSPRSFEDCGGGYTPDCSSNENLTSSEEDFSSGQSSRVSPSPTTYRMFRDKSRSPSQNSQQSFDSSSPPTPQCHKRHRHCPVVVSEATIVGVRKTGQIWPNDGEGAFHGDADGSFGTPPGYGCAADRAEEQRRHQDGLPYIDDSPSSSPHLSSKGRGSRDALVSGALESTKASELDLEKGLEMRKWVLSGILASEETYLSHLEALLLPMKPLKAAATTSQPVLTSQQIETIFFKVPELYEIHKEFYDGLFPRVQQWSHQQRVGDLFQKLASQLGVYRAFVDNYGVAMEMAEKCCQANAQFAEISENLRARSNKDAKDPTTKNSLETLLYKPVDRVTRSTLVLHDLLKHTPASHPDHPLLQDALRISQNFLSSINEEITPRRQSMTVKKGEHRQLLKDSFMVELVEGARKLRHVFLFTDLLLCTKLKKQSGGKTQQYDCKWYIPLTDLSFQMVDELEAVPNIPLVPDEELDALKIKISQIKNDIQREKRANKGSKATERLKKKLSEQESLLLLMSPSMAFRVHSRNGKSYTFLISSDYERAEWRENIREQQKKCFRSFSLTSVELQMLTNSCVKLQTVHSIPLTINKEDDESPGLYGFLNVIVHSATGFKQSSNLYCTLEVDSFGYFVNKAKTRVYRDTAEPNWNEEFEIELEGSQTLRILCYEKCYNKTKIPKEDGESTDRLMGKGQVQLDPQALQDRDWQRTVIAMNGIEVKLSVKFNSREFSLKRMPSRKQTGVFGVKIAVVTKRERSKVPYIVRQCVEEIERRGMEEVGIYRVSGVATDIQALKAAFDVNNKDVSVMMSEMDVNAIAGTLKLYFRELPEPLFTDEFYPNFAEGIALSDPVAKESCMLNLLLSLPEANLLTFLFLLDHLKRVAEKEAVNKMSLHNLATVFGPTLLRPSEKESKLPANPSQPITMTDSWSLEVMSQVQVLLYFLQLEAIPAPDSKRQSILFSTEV

Experiment [7] deals with Mitogen-activated protein kinase 3 (Homo sapiens, UniProt P27361).
Mitogen-activated protein kinase 3, sequence (P27361 whole entry): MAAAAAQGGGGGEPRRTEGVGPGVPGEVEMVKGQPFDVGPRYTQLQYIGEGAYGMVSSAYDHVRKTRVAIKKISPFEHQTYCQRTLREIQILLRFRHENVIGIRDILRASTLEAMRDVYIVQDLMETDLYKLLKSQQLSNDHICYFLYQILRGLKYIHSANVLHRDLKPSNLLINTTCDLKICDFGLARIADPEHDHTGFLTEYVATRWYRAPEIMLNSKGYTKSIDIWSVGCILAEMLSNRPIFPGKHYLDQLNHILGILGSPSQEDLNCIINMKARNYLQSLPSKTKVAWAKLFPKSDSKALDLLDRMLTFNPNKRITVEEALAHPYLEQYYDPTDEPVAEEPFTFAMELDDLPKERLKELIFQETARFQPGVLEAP
The target in experiment [8] is Putative heat shock protein HSP 90-beta 2 (Homo sapiens, UniProt Q58FF8).
Putative heat shock protein HSP 90-beta 2, sequence (Q58FF8 whole entry): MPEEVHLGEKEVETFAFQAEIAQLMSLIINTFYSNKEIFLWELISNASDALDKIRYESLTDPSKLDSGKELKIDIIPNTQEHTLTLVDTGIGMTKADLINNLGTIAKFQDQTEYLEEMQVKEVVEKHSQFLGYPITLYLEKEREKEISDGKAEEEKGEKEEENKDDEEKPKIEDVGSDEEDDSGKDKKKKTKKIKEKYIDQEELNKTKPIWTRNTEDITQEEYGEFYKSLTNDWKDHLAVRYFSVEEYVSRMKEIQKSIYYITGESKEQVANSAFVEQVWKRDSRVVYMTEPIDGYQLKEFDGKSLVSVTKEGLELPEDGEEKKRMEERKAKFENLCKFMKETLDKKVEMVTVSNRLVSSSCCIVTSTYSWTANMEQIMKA
Experiment [9] has as its target T4, Serine/threonine-protein kinase Chk1 (Homo sapiens, UniProt O14757).
T4 sequence (O14757 whole entry): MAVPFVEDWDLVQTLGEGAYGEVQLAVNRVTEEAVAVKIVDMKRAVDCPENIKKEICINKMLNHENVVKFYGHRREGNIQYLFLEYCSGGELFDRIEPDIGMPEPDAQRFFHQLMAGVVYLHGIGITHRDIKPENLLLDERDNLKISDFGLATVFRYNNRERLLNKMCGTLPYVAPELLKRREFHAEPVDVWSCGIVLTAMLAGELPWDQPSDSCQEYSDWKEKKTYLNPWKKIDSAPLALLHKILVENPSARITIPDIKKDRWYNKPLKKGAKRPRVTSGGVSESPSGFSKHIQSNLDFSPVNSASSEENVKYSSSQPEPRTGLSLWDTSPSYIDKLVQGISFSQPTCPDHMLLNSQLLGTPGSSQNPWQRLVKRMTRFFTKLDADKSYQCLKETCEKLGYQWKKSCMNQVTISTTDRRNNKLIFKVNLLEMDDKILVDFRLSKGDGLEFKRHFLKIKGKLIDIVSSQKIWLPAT

The record followed here is ChEMBL document CHEMBL3991601, “The target landscape of clinical kinase drugs” (Science, 2017).

The structures appear in SMILES notation. Calls of active or inactive are those of the source. For most assays here, no stated cut-off is given here; in the data, actives have a measured Kd and inactives only a lower limit.

For orientation: Kd means the free concentration of one partner at which half of the binding sites on the other are occupied at equilibrium, for simple one-to-one binding.

Ribosomal protein S6 kinase alpha-1, sequence (Q15418 whole entry): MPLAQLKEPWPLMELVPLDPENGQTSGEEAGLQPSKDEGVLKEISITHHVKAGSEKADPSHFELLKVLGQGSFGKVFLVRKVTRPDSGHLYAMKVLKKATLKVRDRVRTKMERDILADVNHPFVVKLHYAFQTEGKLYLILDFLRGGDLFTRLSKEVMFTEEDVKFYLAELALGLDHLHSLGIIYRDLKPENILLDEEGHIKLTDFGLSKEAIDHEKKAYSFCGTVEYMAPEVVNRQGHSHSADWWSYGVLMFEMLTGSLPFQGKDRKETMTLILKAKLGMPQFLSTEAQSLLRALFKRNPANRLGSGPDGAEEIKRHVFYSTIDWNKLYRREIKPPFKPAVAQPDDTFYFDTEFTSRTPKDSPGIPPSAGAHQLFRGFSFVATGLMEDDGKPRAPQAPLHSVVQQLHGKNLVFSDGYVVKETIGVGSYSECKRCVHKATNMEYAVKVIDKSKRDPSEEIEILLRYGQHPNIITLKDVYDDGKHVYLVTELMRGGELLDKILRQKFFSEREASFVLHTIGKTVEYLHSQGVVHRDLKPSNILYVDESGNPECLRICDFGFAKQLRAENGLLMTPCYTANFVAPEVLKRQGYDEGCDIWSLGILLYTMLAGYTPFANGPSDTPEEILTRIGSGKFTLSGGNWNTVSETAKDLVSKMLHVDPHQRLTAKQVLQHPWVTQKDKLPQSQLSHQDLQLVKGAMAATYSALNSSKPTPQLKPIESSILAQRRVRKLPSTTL
Non-receptor tyrosine-protein kinase TYK2, sequence (P29597 whole entry, canonical isoform): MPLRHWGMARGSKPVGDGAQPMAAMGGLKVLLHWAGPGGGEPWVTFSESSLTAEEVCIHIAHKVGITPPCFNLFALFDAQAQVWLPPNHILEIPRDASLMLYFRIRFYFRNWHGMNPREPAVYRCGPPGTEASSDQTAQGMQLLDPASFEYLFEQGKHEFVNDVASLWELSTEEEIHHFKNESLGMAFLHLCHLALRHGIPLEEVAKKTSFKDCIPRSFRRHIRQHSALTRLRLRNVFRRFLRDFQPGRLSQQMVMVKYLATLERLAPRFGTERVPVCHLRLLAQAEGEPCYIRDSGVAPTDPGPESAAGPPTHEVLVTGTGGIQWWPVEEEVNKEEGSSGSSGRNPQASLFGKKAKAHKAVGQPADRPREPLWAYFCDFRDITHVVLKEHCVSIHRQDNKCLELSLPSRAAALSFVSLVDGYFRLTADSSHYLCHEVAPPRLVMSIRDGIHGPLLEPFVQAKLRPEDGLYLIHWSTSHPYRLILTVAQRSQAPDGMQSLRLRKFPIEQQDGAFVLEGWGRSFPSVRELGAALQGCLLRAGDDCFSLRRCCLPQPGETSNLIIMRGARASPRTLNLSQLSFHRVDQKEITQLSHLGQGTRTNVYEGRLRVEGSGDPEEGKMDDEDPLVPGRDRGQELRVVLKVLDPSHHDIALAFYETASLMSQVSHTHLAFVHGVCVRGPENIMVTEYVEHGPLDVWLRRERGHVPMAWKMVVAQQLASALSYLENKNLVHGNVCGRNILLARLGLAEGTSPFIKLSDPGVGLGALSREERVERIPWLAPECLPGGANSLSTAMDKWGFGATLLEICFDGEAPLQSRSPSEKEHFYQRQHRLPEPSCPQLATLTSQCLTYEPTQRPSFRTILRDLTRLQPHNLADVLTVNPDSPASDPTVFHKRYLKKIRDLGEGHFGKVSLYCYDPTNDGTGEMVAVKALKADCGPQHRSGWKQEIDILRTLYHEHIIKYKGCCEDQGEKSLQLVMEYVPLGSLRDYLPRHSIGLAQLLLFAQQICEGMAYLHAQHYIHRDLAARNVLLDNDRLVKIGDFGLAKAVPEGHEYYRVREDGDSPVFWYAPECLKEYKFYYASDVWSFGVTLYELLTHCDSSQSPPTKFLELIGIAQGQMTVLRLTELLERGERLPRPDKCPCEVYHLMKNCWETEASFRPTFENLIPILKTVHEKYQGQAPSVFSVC
Interleukin-1 receptor-associated kinase 1, sequence (P51617 whole entry): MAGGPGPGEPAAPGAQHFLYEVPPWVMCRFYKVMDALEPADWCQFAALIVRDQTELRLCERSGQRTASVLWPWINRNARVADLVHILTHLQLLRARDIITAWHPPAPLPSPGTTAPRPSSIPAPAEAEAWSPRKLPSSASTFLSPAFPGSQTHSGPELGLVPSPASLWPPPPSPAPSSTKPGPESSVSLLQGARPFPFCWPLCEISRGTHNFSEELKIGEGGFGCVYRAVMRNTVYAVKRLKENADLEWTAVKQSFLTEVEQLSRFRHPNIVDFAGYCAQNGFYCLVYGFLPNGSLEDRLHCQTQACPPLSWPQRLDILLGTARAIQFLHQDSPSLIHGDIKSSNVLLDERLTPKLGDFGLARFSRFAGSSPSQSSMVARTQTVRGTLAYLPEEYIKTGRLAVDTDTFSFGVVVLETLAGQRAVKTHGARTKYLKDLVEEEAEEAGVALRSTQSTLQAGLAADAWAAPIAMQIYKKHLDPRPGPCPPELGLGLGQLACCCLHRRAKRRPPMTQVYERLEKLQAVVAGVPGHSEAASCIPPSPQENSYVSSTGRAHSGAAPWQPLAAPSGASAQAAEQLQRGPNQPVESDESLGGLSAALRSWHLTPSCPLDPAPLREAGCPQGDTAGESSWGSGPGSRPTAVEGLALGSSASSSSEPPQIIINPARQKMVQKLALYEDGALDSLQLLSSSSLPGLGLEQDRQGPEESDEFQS

For the molecule `CCN(CCCOc1ccc2c(Nc3cc(CC(=O)Nc4cccc(F)c4)n[nH]3)ncnc2c1)CCOP(=O)(O)O` [BARASERTIB], the Kd (in experiment [1]; in [2]; on ADP/ATP translocase 2; in experiment [3]; in [4]; in experiment [5]) was > 30 µM (inactive) in each case. In addition, the Kd in [6], in experiment [7] and in experiment [8] was > 30 µM (inactive) throughout.
For `C=CCn1c(=O)c2cnc(Nc3ccc(N4CCN(C)CC4)cc3)nc2n1-c1cccc(C(C)(C)O)n1` [ADAVOSERTIB], the Kd (in experiment [1]; in [2]; at ADP/ATP translocase 2; in experiment [3]; in [4]; in experiment [5]) was > 30 µM (inactive) each time. The Kd is 1.91 µM (active) in [6], > 30 µM (inactive) in experiment [7] and > 30 µM (inactive) in [8].
For the molecule `COc1cc2c(N3CCN(C(=O)Nc4ccc(OC(C)C)cc4)CC3)ncnc2cc1OCCCN1CCCCC1` [TANDUTINIB], the Kd (at ADP/ATP translocase 2; in [8]) was > 30 µM (inactive) throughout.
As to `COc1cc2c(Oc3ccc4[nH]c(C)cc4c3F)ncnc2cc1OCCCN1CCCC1` [CEDIRANIB], the Kd on ADP/ATP translocase 2 is > 30 µM (inactive); in experiment [6], 2.31 µM (active); in experiment [8] it was > 30 µM (inactive).
As to `Cn1cnc2c(F)c(Nc3ccc(Br)cc3Cl)c(C(=O)NOCCO)cc21` [SELUMETINIB], the Kd (on ADP/ATP translocase 2; in experiment [6]; in experiment [8]) was > 30 µM (inactive) in each case.
As to `Cn1cc(-c2[nH]c3cc(NC(=O)[C@H](N)C4CCCCC4)cc4c3c2C=NNC4=O)cn1`, the Kd in [1] is > 30 µM (inactive); in experiment [2], 5.2 µM; on ADP/ATP translocase 2, > 30 µM (inactive); in [3] it was > 30 µM (inactive); in [4], > 30 µM (inactive); in experiment [5] it was > 30 µM (inactive). Further, the results for the Kd in experiment [6], in [7] and in experiment [8] were 1.11 µM (active), 3.21 µM (active) and > 30 µM (inactive), respectively.
In the case of `CN(C)C/C=C/C(=O)Nc1cc2c(Nc3ccc(F)c(Cl)c3)ncnc2cc1O[C@H]1CCOC1` [AFATINIB], the Kd (at ADP/ATP translocase 2; in experiment [6]; in [8]) was > 30 µM (inactive) in each case.
Take `CCOc1ccn(-c2ccc(F)cc2)c(=O)c1C(=O)Nc1ccc(Oc2ccnc(N)c2Cl)c(F)c1` [BMS-777607]: the Kd (in [2]; on ADP/ATP translocase 2; in experiment [3]; in experiment [5]; in experiment [9]; in experiment [6]) was > 30 µM (inactive) in each case. The Kd in experiment [7] and in experiment [8] was > 30 µM (inactive) throughout.
Turning to `CN(c1ncccc1CNc1nc(Nc2ccc3c(c2)CC(=O)N3)ncc1C(F)(F)F)S(C)(=O)=O` [PF-00562271], the Kd (in experiment [2]; on ADP/ATP translocase 2; in [3]; in [6]; in experiment [7]; in [8]) was > 30 µM (inactive) throughout.
As for `CC[C@@](C)(Nc1ccnc(-c2c[nH]c3ncccc23)n1)C(=O)NCC(F)(F)F` [DECERNOTINIB], the Kd (in experiment [1]; in experiment [2]; on ADP/ATP translocase 2; in experiment [3]; in experiment [5]; in experiment [9]) was > 30 µM (inactive) in each case. Also, the Kd in experiment [6], in experiment [7] and in experiment [8] was > 30 µM (inactive) throughout.
`CC1(C)CNc2cc(NC(=O)c3cccnc3NCc3ccncc3)ccc21` [MOTESANIB]: the Kd (on ADP/ATP translocase 2; in [6]; in [8]) was > 30 µM (inactive) each time.
In the case of `C[C@@]1(C(=O)Nc2ccc(F)nc2)CCCN1c1nc(Nc2cc(C3CC3)n[nH]2)c2cccn2n1` [BMS-754807], the Kd (at ADP/ATP translocase 2; in experiment [6]; in experiment [8]) was > 30 µM (inactive) throughout.
Take `O=S(=O)(c1cccc2cnccc12)N1CCCNCC1` [FASUDIL]: the Kd (in [1]; in [2]; on ADP/ATP translocase 2; in [3]; in experiment [5]; in experiment [6]) was > 30 µM (inactive) in each case. Besides, the Kd in experiment [7] and in [8] was > 30 µM (inactive) throughout.
Take `N#CCNC(=O)c1ccc(-c2ccnc(Nc3ccc(N4CCOCC4)cc3)n2)cc1` [MOMELOTINIB]: the Kd (in [1]; at ADP/ATP translocase 2; in [3]; in experiment [5]; in [9]; in experiment [6]) was > 30 µM (inactive) in each case. Also, the Kd in experiment [7] and in experiment [8] was > 30 µM (inactive) throughout.
`C[C@]1(O)C[C@@H](c2nc(-c3ccc4ccc(-c5ccccc5)nc4c3)c3c(N)nccn32)C1` [LINSITINIB]: the Kd (in experiment [2]; at ADP/ATP translocase 2; in [3]; in experiment [6]; in experiment [8]) was > 30 µM (inactive) each time.
In the case of `Cn1c(=O)n(-c2ccc(C(C)(C)C#N)cc2)c2c3cc(-c4cnc5ccccc5c4)ccc3ncc21` [DACTOLISIB], the Kd (in [2]; on ADP/ATP translocase 2; in [3]; in experiment [4]; in experiment [5]; in experiment [6]) was > 30 µM (inactive) in each case. Besides, the Kd in [7] and in [8] was > 30 µM (inactive) in each case.
